The source of these data is US20250248393A1, “METHOD OF RELEASING A SEMIOCHEMICAL IN THE ENVIRONEMENT BY PASSIVE DIFFUSION, SYSTEM AND MEANS, ESPECIALLY STICKS, TO THIS END, AND USES THEREOF” (SIGNS, priority 2024, published 2025).

Each structure is given as a SMILES string.

Format in all cases: physicochemical
Series [1] is described as follows: F3 direct diffusion and mass loss, 40 mL and eight sticks with a refill. Particulars: F3, eight sticks. The procedure: To that purpose, three devices containing 40 mL of F3 feline facial pheromone product and eight rattan sticks were prepared and left on diffusion. Every Monday, Wednesday and Friday, the diffusion of the pheromone in air was checked by analysis by gas chromatography coupled with mass spectrometer (GC/MS) and SPME (solid phase microextraction) until there was no liquid left. Then, the solution was refilled and a second study of the diffusion of the pheromone was performed.
Experimentally, the studied device was taken and placed into a closed space under identical conditions than in section E/, and for analyzing the same data.
Each measuring day, the devices were weighed and the level of the solution in the flask was controlled.

Series [2] in a line: F3 sticks device, direct diffusion, 40 mL and four sticks (SPME GC/MS). To be noted: four sticks. As for the experimental part:
Three devices containing 40 mL of F3 feline facial pheromone product and four rattan sticks were prepared and left on diffusion. Every Monday, Wednesday and Friday, the diffusion of the pheromone in air was checked by analysis by gas chromatography coupled with mass spectrometer (GC/MS) and SPME (solid phase microextraction) until there is no liquid left (about 22 days).
To that purpose, the studied device was taken and placed into a closed space (in our case an aquarium turned over) containing the SPME fiber as shown on FIG. 24.
The SPME fiber was left for two hours to give the time for the molecules to adsorb on the fiber, then the fiber was injected into the GC/MS instrument for analysis.
Analysis were carried out using gas chromatography with mass spectrometer. The instrument was a GCMS QP2010SE® from Shimadzu with an AOC6000® Autosampler. The separation was performed on a ZB-5 MS® column (30 m×0.25 mm×0.25 μm, stationary phase: 95% Dimethylpolysiloxane, 5% Phenyl-Arylene) from Phenomenex. The GC oven temperature was initially held at 100° C. for 1 minute then increased at a pace of 10° C./min to 120° C. and left at this temperature for 3 minutes. Finally, the oven temperature was increased at a pace of 10° C./min to 240° C. and left at this temperature for 10 minutes. The carrier gas was helium at 1 mL/min. Analysis were performed in split mode using a split/splitless injector (Temperature: 250° C., split: 1:20). The SPME fiber was directly injected into the injector and left for 30 minutes. Separated molecules were detected using a mass spectrometer which was operated in electron impact ionization (EI) in both full scan (FS) and single ion monitoring (SIM) modes, so called FASST (Fast Automated SCAN/SIM type) mode. The interface temperature was set at 300° C. and electron impact source temperature at 250° C. The analyser was a quadrupole.
For the measurement of the relative quantity of active ingredient spreading in air, the area of the chromatographic peak corresponding to the compound was measured using Shimadzu GCMS-Solution software.

Series [3] in a line: F3 block stability study in sodium stearate aqueous gel (GC-MS). To be noted: after 3 months. As for the experimental part: Aqueous sodium stearate gel is a method used by SIGNS for several of the pheromones it markets (pork, poultry, rabbit). The sodium stearate matrix is cast at high temperature (60° C.) and contains 2% pheromone. In this study, matrix samples are taken by coring, and the active ingredients are extracted by apolar solvent, using the SIGNS-validated quality control method. Extracts are analyzed by GC-MS. […] Given this observation, formula F3 cannot be used in blocks for passive diffusion, so a change of galenic formulation is necessary.

A short description of series [4]: F3 direct diffusion, 120 mL and six sticks. Particulars: 6 sticks. As for the experimental part:
To that purpose, three devices containing 120 mL of F3 feline facial pheromone product and six rattan sticks were prepared and left on diffusion as shown on FIG. 43.
The direct diffusion of F3 pheromone was then studied following the same protocol as the protocol of the first study shown in Section E/herein.
Each measuring day, the flasks were weighed, and the volume of the liquid was checked visually: see FIGS. 55 and 56.

Series [5] is described as follows: F3 migration along the stick (top 1 cm, GC/MS). Particulars: F3, five sticks. The procedure: Three devices containing 40 mL of F3 feline facial pheromone product and five […] sticks were prepared and left on diffusion. A t=1 day, T=3 days, T=10 days, T=15 days and T=22 days after preparation of the devices, one stick was taken on each device and 1 cm of the top of each stick was cut, then extracted with acetone 1 h in an ultrasonic bath and analysed by gas chromatography coupled with mass spectrometry (GC/MS). The same analytical parameters were used for the study C with a liquid injection (injected quantity: […]) Blank analysis and matrix blank analysis were also performed.

Series [6] in a line: F3P PCDS indirect diffusion, pheromone remaining in solution (GC/FID). The procedure:
For this study, three diffusers each containing 40 mL of product and 6 capillaries were prepared and diffused. Once a week, on Wednesdays, the amount of pheromone remaining in the solution was monitored by gas chromatography analysis coupled to a flame ionization detector (GC/FID) until no liquid remained. The percentage of pheromone was measured weekly.
Next, the percentage of pheromone was checked by external calibration using a GC/FID calibration range.
Analyses were carried out by gas chromatography coupled to a flame ionization detector. The instrument was a Shimadzu GC 2025® with an AOC20i® autosampler. Separation was performed on an Agilent DB-FFAP® column (30 m×0.25 mm×0.25 μm, stationary phase: nitroterephthalic acid-modified polyethylene glycol). The temperature of the gas chromatography oven was initially maintained at 140° C. for 2 minutes, then increased at 10° C./min to 250° C. and left at this temperature for 3 minutes. The carrier gas was helium at 1 mL/min. Analyses were performed in split mode using a split/splitless injector (temperature: 250° C., split: 1:50).
The detector used was a flame ionization detector. The detector temperature was 250° C. with an air flow rate of 400 mL/min, hydrogen 40 mL/min and nitrogen 30 mL/min.
For this purpose, a calibration range was prepared for each analysis. […]

A short description of series [7]: Ratios of molecules diffused through the sticks over time. The procedure:
Furthermore, as small molecules diffuse more, it happens that they lose intensity over the course of the study, so the ratios are different 24 hours after immersing the sticks in the liquid and 21 days later. Here are the ratios for each pheromone studied at the start of the study and at the end.

Consider `COC(=O)CCCCCC(=O)OC` [dimethyl pimelate, dimethyl heptanedioate], for which, in series [1], the “intensity of direct diffusion” value is “highest diffusion”. In addition, the figures for the “direct diffusion over time” value in series [2] and in series [4] were “gradually decreased over time” and “decreased over time”, respectively. The “stability in the block” value in series [3] was “disappeared completely”. For the same compound, in series [5], the “quantity on the top of the stick over time” value is “decreased significantly between 5 and 10 days before stabilising”. In series [5], the “relative quantity on the top of the stick” value is listed as “less present”. Also, in series [6], the “quantities found in the solution” value is listed as “very low”. For the same compound, the “ratio of molecules diffused through the sticks” value is 70 % (w/w) in series [7] (F3, 24 h after immersion of sticks); 48 % (w/w) in series [7] (F3, 21 days after immersion of sticks (empty tank)); 56 % (w/w) in series [7] (F3P, 24 h after immersion of the sticks); 36.5 % (w/w) in series [7] (F3P, 21 days after immersion of sticks (empty tank)).
